In patent US11168086B2, “Methods of synthesizing pyrazine compounds” (Hoffmann-La Roche Inc., priority 2015, dated 2021):

The compounds below were run on HBV (assay: HBV inhibition assay: anti-HBV activity in vitro in HepG2.2.15 cells (extracellular HBV DNA by qPCR)). Conditions: Hepatitis B virus, 120 h, five days after compound treatment, extracellular HBV DNA in culture supernatant by qPCR, concentration at which HBV replication is inhibited by 50%.
Type: cell-based
Outline: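 HepG2.2.15 cells (stably carrying HBV genome) treated with half-log serially diluted compounds at 0.5% DMSO final for five days. Extracellular HBV DNA in supernatant quantified by qPCR after Proteinase K digestion; EC50 is concentration giving 50% inhibition of replication.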

Row | Compound | EC50
1 | C[C@H]1Cn2ncc(N3CC(C(=O)N4CCCC4)CC3=O)c2CN1C(=O)Nc1cc(F)c(F)c(F)c1 (stereo partly drawn) [Example 391, (6S)-6-methyl-3-[2-oxo-4-(pyrrolidine-1-carbonyl)pyrrolidin-1-yl]-N-(3,4,5-trifluorophenyl)-6,7-dihydro-4H-pyrazolo[1,5-a]pyrazine-5-carboxamide] | 74 nM
2 | C[C@H]1Cn2ncc(N3CC(C(=O)Nc4ncco4)CC3=O)c2CN1C(=O)Nc1cc(F)c(F)c(F)c1 (stereo partly drawn) [Example 392, (6S)-6-methyl-3-[4-(oxazol-2-ylcarbamoyl)-2-oxo-pyrrolidin-1-yl]-N-(3,4,5-trifluorophenyl)-6,7-dihydro-4H-pyrazolo[1,5-a]pyrazine-5-carboxamide] | 88 nM
3 | C[C@H]1Cn2ncc(N3CC(C(=O)N4CCOC(C)(C)C4)CC3=O)c2CN1C(=O)Nc1cc(F)c(F)c(F)c1 (stereo partly drawn) [Example 393, (6S)-3-[4-(2,2-dimethylmorpholine-4-carbonyl)-2-oxo-pyrrolidin-1-yl]-6-methyl-N-(3,4,5-trifluorophenyl)-6,7-dihydro-4H-pyrazolo[1,5-a]pyrazine-5-carboxamide] | 70 nM
4 | C[C@@H]1CN(C(=O)C2CC(=O)N(c3cnn4c3CN(C(=O)Nc3cc(F)c(F)c(F)c3)[C@@H](C)C4)C2)CCO1 (stereo partly drawn) [Example 394, (6S)-6-methyl-3-[4-[(2R)-2-methylmorpholine-4-carbonyl]-2-oxo-pyrrolidin-1-yl]-N-(3,4,5-trifluorophenyl)-6,7-dihydro-4H-pyrazolo[1,5-a]pyrazine-5-carboxamide] | 65 nM
5 | C[C@H]1CN(C(=O)C2CC(=O)N(c3cnn4c3CN(C(=O)Nc3cc(F)c(F)c(F)c3)[C@@H](C)C4)C2)CCO1 (stereo partly drawn) [Example 395, (6S)-6-methyl-3-[4-[(2S)-2-methylmorpholine-4-carbonyl]-2-oxo-pyrrolidin-1-yl]-N-(3,4,5-trifluorophenyl)-6,7-dihydro-4H-pyrazolo[1,5-a]pyrazine-5-carboxamide] | 88 nM
6 | C[C@@H]1CN(C(=O)C2CC(=O)N(c3cnn4c3CN(C(=O)Nc3cc(F)c(F)c(F)c3)[C@@H](C)C4)C2)C[C@@H](C)O1 (stereo partly drawn) [Example 396, (6S)-3-[4-[trans-2,6-dimethylmorpholine-4-carbonyl]-2-oxo-pyrrolidin-1-yl]-6-methyl-N-(3,4,5-trifluorophenyl)-6,7-dihydro-4H-pyrazolo[1,5-a]pyrazine-5-carboxamide] | 58 nM
7 | C[C@@H]1CN(C(=O)C2CC(=O)N(c3cnn4c3CN(C(=O)Nc3cc(F)c(F)c(F)c3)[C@@H](C)C4)C2)C[C@H](C)O1 (stereo partly drawn) [Example 397, (6S)-3-[4-[cis-2,6-dimethylmorpholine-4-carbonyl]-2-oxo-pyrrolidin-1-yl]-6-methyl-N-(3,4,5-trifluorophenyl)-6,7-dihydro-4H-pyrazolo[1,5-a]pyrazine-5-carboxamide] | 60 nM
8 | C[C@H]1Cn2ncc(N3CC(C(=O)N4CCC(F)(F)C4)CC3=O)c2CN1C(=O)Nc1cc(F)c(F)c(F)c1 (stereo partly drawn) [Example 398, (6S)-3-[4-(3,3-difluoropyrrolidine-1-carbonyl)-2-oxo-pyrrolidin-1-yl]-6-methyl-N-(3,4,5-trifluorophenyl)-6,7-dihydro-4H-pyrazolo[1,5-a]pyrazine-5-carboxamide] | 80 nM
9 | C[C@H]1Cn2ncc(N3CC(C(=O)N(C)c4ncco4)CC3=O)c2CN1C(=O)Nc1cc(F)c(F)c(F)c1 (stereo partly drawn) [Example 399, (6S)-6-methyl-3-[4-[methyl(oxazol-2-yl)carbamoyl]-2-oxo-pyrrolidin-1-yl]-N-(3,4,5-trifluorophenyl)-6,7-dihydro-4H-pyrazolo[1,5-a]pyrazine-5-carboxamide] | 19 nM
10 | C[C@H]1Cn2ncc(N3CC(C)(C(=O)N4CCC(F)(F)C4)CC3=O)c2CN1C(=O)Nc1cc(F)c(F)c(F)c1 (stereo partly drawn) [Example 400, (6S)-3-[4-(3,3-difluoropyrrolidine-1-carbonyl)-4-methyl-2-oxo-pyrrolidin-1-yl]-6-methyl-N-(3,4,5-trifluorophenyl)-6,7-dihydro-4H-pyrazolo[1,5-a]pyrazine-5-carboxamide] | 94 nM
11 | C[C@H]1Cn2ncc(N3CC(C)(C(=O)N4CCC(F)(F)CC4)CC3=O)c2CN1C(=O)Nc1cc(F)c(F)c(F)c1 (stereo partly drawn) [Example 401, (6S)-3-[4-(4,4-difluoropiperidine-1-carbonyl)-4-methyl-2-oxo-pyrrolidin-1-yl]-6-methyl-N-(3,4,5-trifluorophenyl)-6,7-dihydro-4H-pyrazolo[1,5-a]pyrazine-5-carboxamide] | 88 nM
12 | Cc1nnc(C2(C)CC(=O)N(c3cnn4c3CN(C(=O)Nc3cc(F)c(F)c(F)c3)[C@@H](C)C4)C2)o1 (stereo partly drawn) [Example 403, (6S)-6-methyl-3-[4-methyl-4-(5-methyl-1,3,4-oxadiazol-2-yl)-2-oxo-pyrrolidin-1-yl]-N-(3,4,5-trifluorophenyl)-6,7-dihydro-4H-pyrazolo[1,5-a]pyrazine-5-carboxamide] | 31 nM
13 | C[C@H]1Cn2ncc(N3CC(C)(c4nnco4)CC3=O)c2CN1C(=O)Nc1cc(F)c(F)c(F)c1 (stereo partly drawn) [Example 404, (6S)-6-methyl-3-[4-methyl-4-(1,3,4-oxadiazol-2-yl)-2-oxo-pyrrolidin-1-yl]-N-(3,4,5-trifluorophenyl)-6,7-dihydro-4H-pyrazolo[1,5-a]pyrazine-5-carboxamide] | 42 nM
14 | Cc1noc(C2(C)CC(=O)N(c3cnn4c3CN(C(=O)Nc3cc(F)c(F)c(F)c3)[C@@H](C)C4)C2)n1 (stereo partly drawn) [Example 405, (6S)-6-methyl-3-[4-methyl-4-(3-methyl-1,2,4-oxadiazol-5-yl)-2-oxo-pyrrolidin-1-yl]-N-(3,4,5-trifluorophenyl)-6,7-dihydro-4H-pyrazolo[1,5-a]pyrazine-5-carboxamide] | 10 nM
15 | Cc1nc(C2(C)CC(=O)N(c3cnn4c3CN(C(=O)Nc3cc(F)c(F)c(F)c3)[C@@H](C)C4)C2)no1 (stereo partly drawn) [Example 406, (6S)-6-methyl-3-[4-methyl-4-(5-methyl-1,2,4-oxadiazol-3-yl)-2-oxo-pyrrolidin-1-yl]-N-(3,4,5-trifluorophenyl)-6,7-dihydro-4H-pyrazolo[1,5-a]pyrazine-5-carboxamide] | 6 nM
16 | C[C@H]1Cn2ncc(N3C[C@@H](c4cnco4)OCC3=O)c2CN1C(=O)Nc1cc(F)c(F)c(F)c1 [Example 407, (6S)-6-methyl-3-[(2S)-2-oxazol-5-yl-5-oxo-morpholin-4-yl]-N-(3,4,5-trifluorophenyl)-6,7-dihydro-4H-pyrazolo[1,5-a]pyrazine-5-carboxamide] | 24 nM
17 | Cc1noc(C2CN(c3cnn4c3CN(C(=O)Nc3cc(F)c(F)c(F)c3)[C@@H](C)C4)C(=O)O2)n1 (stereo partly drawn) [Example 408, (6S)-6-methyl-3-[5-(3-methyl-1,2,4-oxadiazol-5-yl)-2-oxo-oxazolidin-3-yl]-N-(3,4,5-trifluorophenyl)-6,7-dihydro-4H-pyrazolo[1,5-a]pyrazine-5-carboxamide] | 22 nM
18 | C[C@H]1Cn2ncc(N3CC(c4ccc(Cl)nc4)OC3=O)c2CN1C(=O)Nc1cc(F)c(F)c(F)c1 (stereo partly drawn) [Example 409, (6S)-3-[5-(6-chloro-3-pyridyl)-2-oxo-oxazolidin-3-yl]-6-methyl-N-(3,4,5-trifluorophenyl)-6,7-dihydro-4H-pyrazolo[1,5-a]pyrazine-5-carboxamide] | 16 nM
19 | C[C@H]1Cn2ncc(N3CC(c4ccc(F)cn4)OC3=O)c2CN1C(=O)Nc1cc(F)c(F)c(F)c1 (stereo partly drawn) [Example 410, (6S)-3-[5-(5-fluoro-2-pyridyl)-2-oxo-oxazolidin-3-yl]-6-methyl-N-(3,4,5-trifluorophenyl)-6,7-dihydro-4H-pyrazolo[1,5-a]pyrazine-5-carboxamide] | 37 nM
